“Also recorded” adds a separate entry of the source.

Experiment [1] concerns PBMC from coeliac subjects. Kind of experiment: IFNγ ELISPOT with PBMC of coeliac disease subjects after bread/gluten challenge. The class given is cell-based, human. The settings on record: for % bioactivity compared to unmodified A-gliadin 57-73 QE65 / greater bioactivity than the parent peptide: 50 mcg/ml; for % bioactivity compared to unmodified A-gliadin 57-73 QE65: PBMC from 8 subjects, mean response as % A-G 57-73 QE65 mean response, blank 7.1%; for Mean response as % of the response to the immunodominant epitope: 57-73 A-gliadin epitope substituted at position 65, synthetic peptides 50 μg/ml, 3 coeliac subjects, 6 days after commencing gluten challenge; for % agonist.: agonist activity compared to A-gliadin 57-73 QE65 as shown in Table 9; for ELISpot response as % A-gliadin 57-73 QE65, E-substituted: glutamate-substituted peptide; for ELISpot response as % A-gliadin 57-73 QE65, E-substituted / ELISpot response as % A-gliadin 57-73 QE65, Wildtype + tTG / ELISpot response as % A-gliadin 57-73 QE65, Wild type: 25 mcg/ml, 4 subjects, blank 5 (1) %; for ELISpot response as % A-gliadin 57-73 QE65, Wildtype + tTG: tTG-treated wild type peptide; for ELISpot response as % A-gliadin 57-73 QE65, Wild type: unmodified gliadin peptide; for Elisopt response TG: peptide treated with transglutaminase; for Elisopt response TG / Elisopt response No TG: mean (range), 3 subjects, as in Example 2; for Elisopt response No TG: peptide without transglutaminase treatment; for greater bioactivity than the parent peptide: parent A-gliadin 57-73 QE65.

Experiment [2] concerns PBMC from coeliac volunteers. Kind of experiment: Antagonism of A-gliadin 57-73 QE65 interferon gamma ELISPOT response (simultaneous addition of peptide). It counts as cell-based, human. As to the method:
Simultaneous addition of peptide (50 μg/ml) or buffer and A-gliadin 57-73 QE65 (10 μg/ml) in IFNgamma ELISPOT using PBMC from coeliac volunteers 6 days after commencing 3 day gluten challenge (n=5). Results were expressed as response with peptide plus A-G 57-73 QE65 (mean of duplicates) as % response with buffer plus A-G 57-73 QE65 (mean of 20 replicates). (See Table 9).

Experiment [3] relates to gluten-specific T cell clones and lines. The settings on record: from original publications; iTCC intestinal T cell clone, iTCL intestinal polyclonal T cell line, bTCC peripheral blood T cell clone; NS not given; cited from earlier work.
The test system of experiment [4] is PBMC from newly diagnosed coeliac subjects. Kind of experiment: Interferon gamma ELISpot with PBMC of newly diagnosed coeliac subjects, gluten challenge after short GFD. It counts as cell-based, human. The settings on record: 25 mcg/ml. The protocol:
Newly diagnosed DQ2+ coeliac subjects were recruited from the gastroenterology outpatient service. PBMC were prepared and tested in interferon gamma ELISpot assays before subjects commenced GFD, and at one or two weeks after commencing GFD. In addition, gluten challenge (3 days consuming 4 slices standard white bread, 200 g/day) was performed at one or two weeks after starting GFD. PBMC were prepared and assayed on day six are after commencing gluten challenge. A-gliadin 57-73 QE65 (A), P04724 84-100 QE92 (B) (alone and combined) and A-gliadin 57-73 QP65 (P65) (non-bioactive variant, see above) (all 25 mcg/ml) were assessed.

Where [5] appears, read: substituted variant 50 μg/ml plus A-gliadin 57-73 QE65 10 μg/ml, n=5.
Where [6] appears, read: coeliacs who had followed GFD for only one week.
Setting [7] is: gluten challenge 2 weeks after commencing GFD, compared with A-gliadin 57-73 QP65 and blank.
The mark [8] stands for this setting: naturally occurring polymorphisms of A-gliadin 57-73 QE65, 50 μg/ml plus A-gliadin 57-73 QE65 10 μg/ml.

For `N[C@@H](CS)C(=O)O` [C65], in experiment [1], the “% bioactivity compared to unmodified A-gliadin 57-73 QE65” value (“% bioactivity” for short) came out at 42% and the “Mean response as % of the response to the immunodominant epitope” value (“Mean response as % of the response” below) worked out at 62%.

Take `N[C@@H](CC(=O)O)C(=O)O` [D65]: in experiment [1], the “% bioactivity” value is 95% and the “Mean response as % of the response” value amounted to 65%.

Take `N[C@@H](Cc1c[nH]cn1)C(=O)O` [H65]: the “% Inhibit. of A-gliadin 57-73 QE65 interferon gamma ELISpot response” value in experiment [2] (setting [5]) was 20%. Moreover, in experiment [1], the “% bioactivity” value is reported as 26% and the “% agonist.” value came to 16%. The “Mean response as % of the response” value in experiment [1] (listed as Histidine) worked out at 8%.

Take `NCCCC[C@H](N)C(=O)O` [K65]: the “% Inhibit. of A-gliadin 57-73 QE65 interferon gamma ELISpot response” value in experiment [2] (setting [5]) is 15%. Besides, in experiment [1], the “% bioactivity” value is given as 8% and the “% agonist.” value was 8%. In addition, the “Mean response as % of the response” value in experiment [1] (listed as Lysine) is recorded as 4%.

`CC(C)C[C@H](N)C(=O)O` [L65]: the “% Inhibit. of A-gliadin 57-73 QE65 interferon gamma ELISpot response” value in experiment [2] (setting [5]) was found to be 20%. Besides, in experiment [1], the “% bioactivity” value turned out to be 16%, the “Mean response as % of the response” value was 33% and the “% agonist.” value was 26%.

As to `N=C(N)NCCC[C@H](N)C(=O)O` [R65], in experiment [2] (setting [5]), the “% Inhibit. of A-gliadin 57-73 QE65 interferon gamma ELISpot response” value was 13%. Also, in experiment [1], the “% bioactivity” value was 11% and the “% agonist.” value is 11%. Moreover, in experiment [1] (listed as Arginine), the “Mean response as % of the response” value is reported as 1%.

Take `C[C@@H](O)[C@H](N)C(=O)O` [T65]: the “% Inhibit. of A-gliadin 57-73 QE65 interferon gamma ELISpot response” value in experiment [2] (setting [5]) amounted to 28%. In addition, in experiment [1], the “% bioactivity” value was determined as 7%, the “Mean response as % of the response” value was determined as 55% and the “% agonist.” value is given as 19%.

On to `N[C@@H](Cc1ccc(O)cc1)C(=O)O` [Y65], for which the “% Inhibit. of A-gliadin 57-73 QE65 interferon gamma ELISpot response” value in experiment [2] (setting [5]) was found to be 12%. Besides, in experiment [1] (listed as Tyrosine), the “Mean response as % of the response” value amounted to 8%. Also, the “% agonist.” value in experiment [1] is given as 7%.

As for GQQGYYPTSPQQSGQ, the Frequency in experiment [3] is reported as 1/1 (iTCC).

With LGQQQPFPPQQPYPQPQPF, the Frequency in experiment [3] is on record as 1/23 (bTCC).

Take “PQLPYPQPELPYPQPQP [P04724 84-100 QE92, glutamate-substituted polymorphism GDA4_WHEAT P04724 84-100 (K)]”: the “responses after gluten challenge” value in experiment [4] (setting [6]) is on record as “did not substantially enhance responses”. In addition, the “responses after gluten challenge” value in experiment [4] (setting [7]) is listed as “did induce responses”. In experiment [1], the “ELISpot response as % A-gliadin 57-73 QE65, E-substituted” value is given as 69 (20) %; the “ELISpot response as % A-gliadin 57-73 QE65, Wildtype + tTG” value is 80 (17) %; the “ELISpot response as % A-gliadin 57-73 QE65, Wild type” value is recorded as 14 (4) %.

For PQLPYPQPQLPYPQPQP, in experiment [1], the “Elisopt response TG” value was 109 (41-152) and the “Elisopt response No TG” value is reported as 3 (0-7).

Consider “PQPQPFLPELPYPQPQS [P04727 79-95 QE65, glutamate-substituted polymorphism GDA7_WHEAT P04727 79-95 (M)]”, for which the “% Inhibit. of A-gliadin 57-73 QE65 interferon gamma ELISpot response” value in experiment [2] (setting [8]) worked out at 6%.

In the case of PQPQPFLPQLPYPQPQS, in experiment [1], the “Elisopt response TG” value is 21 (11-33) and the “Elisopt response No TG” value was 10 (0-30).

In the case of “PQPQPFPPELPYPQPPP [P04726 82-98 QE90, glutamate-substituted polymorphism GDA6_WHEAT P04726 82-98 (P)]”, in experiment [2] (setting [8]), the “% Inhibit. of A-gliadin 57-73 QE65 interferon gamma ELISpot response” value was determined as 5%.

Turning to “PQPQPFPPELPYPQPQS [P04725 82-98 QE90, glutamate-substituted polymorphism GDA5_WHEAT P04725 82-98 (N)]”, the “% Inhibit. of A-gliadin 57-73 QE65 interferon gamma ELISpot response” value in experiment [2] (setting [8]) is 19%.

As to “PQPQPFPPELPYPQTQP [P04723 77-93 QE85, glutamate-substituted polymorphism GDA3_WHEAT P04723 77-93 (O)]”, the “% Inhibit. of A-gliadin 57-73 QE65 interferon gamma ELISpot response” value in experiment [2] (setting [8]) is given as 10%.

On to PQPQPFPPQLPYPQPPP, for which, in experiment [1], the “Elisopt response TG” value is 19 (11-33) and the “Elisopt response No TG” value is listed as 10 (0-30).

With PQPQPFPPQLPYPQPQS, in experiment [1], the “Elisopt response TG” value is 24 (11-43) and the “Elisopt response No TG” value is on record as 17 (0-40).

As to “QLQPFLQPELPYSQPQP [Q41509 77-93 QE85, glutamate-substituted polymorphism Q41509 77-93]”, the “% Inhibit. of A-gliadin 57-73 QE65 interferon gamma ELISpot response” value is reported as 11% in experiment [2] (naturally occurring polymorphisms of A-gliadin 57-73 QE65, 50 μg/ml plus A-gliadin 57-73 QE65 10 μg/ml, polymorphism SEQ ID NO 71) and 6% in experiment [2] (naturally occurring polymorphisms of A-gliadin 57-73 QE65, 50 μg/ml plus A-gliadin 57-73 QE65 10 μg/ml, polymorphism SEQ ID NO 76).

For the compound QLQPFLQPQLPYSQPQP, in experiment [1], the “Elisopt response TG” value is on record as 3 (0-7) and the “Elisopt response No TG” value was 0 (0-1).

With “QLQPFPQPELPYPQPQS (listed as Triticum sp.) [A-gliadin 57-73 QE65]”, in experiment [4] (setting [6]), the “responses after gluten challenge” value is “did not substantially enhance responses”. Also, the “responses after gluten challenge” value in experiment [4] (setting [7]) is given as “did induce responses”. In experiment [1], the “Mean response as % of the response” value turned out to be 100%; the “ELISpot response as % A-gliadin 57-73 QE65, E-substituted” value worked out at 100%; the “Elisopt response TG” value is 100 (100); the “ELISpot response as % A-gliadin 57-73 QE65, Wildtype + tTG” value is 87 (7) %. Moreover, the “ELISpot response as % A-gliadin 57-73 QE65, Wild type” value in experiment [1] was 18 (7) %. Moreover, in experiment [1] (PBMC after 3 day bread/gluten challenge), the “IFNγ ELISPOT response (result in words)” value was “induced maximal responses; also recorded: most potent gliadin peptide for induction of interferon gamma”. In experiment [1] (in vivo (gluten challenge), DQ2), the Frequency is listed as 11/12 in vivo.

With “QLQPFPQPELPYSQPQP [P02863 77-93 QE85, glutamate-substituted polymorphism GDA0_WHEAT P02863 77-93 (F)]”, in experiment [2] (setting [8]), the “% Inhibit. of A-gliadin 57-73 QE65 interferon gamma ELISpot response” value turned out to be 6%.

As for “QLQPFPQPELSYSQPQP [Gliα 3-5 57-73 QE65, glutamate-substituted polymorphism Gli alpha 3,4, 5 57-73 (I)]”, the “% Inhibit. of A-gliadin 57-73 QE65 interferon gamma ELISpot response” value in experiment [2] (setting [8]) is reported as 7%.

Turning to QLQPFPQPQLPYPQPQL, in experiment [1], the “Elisopt response TG” value is reported as 83 (74-97) and the “Elisopt response No TG” value was 19 (0-33).

For QLQPFPQPQLPYPQPQP, in experiment [1], the “Elisopt response TG” value was 83 (61-113) and the “Elisopt response No TG” value was 12 (0-20).

For QLQPFPQPQLPYSQPQP, in experiment [1], the “Elisopt response TG” value was 53 (44-67) and the “Elisopt response No TG” value is given as 5 (1-7).

Consider QLQPFSQPQLPYSQPQP, for which, in experiment [1], the “Elisopt response TG” value is recorded as 2 (0-7) and the “Elisopt response No TG” value was 0 (0-0).

For “QPQPFPPPELPYPQTQP [Gliα 1,6 58-74 QE66, glutamate-substituted polymorphism Gli alpha 1, 6 58-74 (J)]”, the “% Inhibit. of A-gliadin 57-73 QE65 interferon gamma ELISpot response” value in experiment [2] (setting [8]) is 11%.

Turning to “QQLPQPEQPQQSFPEQERPF [reference compound]”, in experiment [1], the “ELISpot response as % A-gliadin 57-73 QE65, E-substituted” value is recorded as 10 (5) %; the “ELISpot response as % A-gliadin 57-73 QE65, Wildtype + tTG” value was 18 (7) %; the “ELISpot response as % A-gliadin 57-73 QE65, Wild type” value was 9 (3) %.

On to QQYPSGEGSFQPSQENPQ [reference compound], for which, in experiment [1], the “ELISpot response as % A-gliadin 57-73 QE65, E-substituted” value is listed as 14 (8) %; the “ELISpot response as % A-gliadin 57-73 QE65, Wildtype + tTG” value is reported as 9 (3) %; the “ELISpot response as % A-gliadin 57-73 QE65, Wild type” value is on record as 10 (3) %.

Consider “Y61: A-gliadin 57-73 QE65 variant, Y at position 61 (QLQPYPQPELPYPQPQS)”, for which, in experiment [1], the “% bioactivity” value turned out to be 129% and the “greater bioactivity than the parent peptide” value stood at 30%.

For the compound “Y70: A-gliadin 57-73 QE65 variant, Y at position 70 (QLQPFPQPELPYPYPQS)”, in experiment [1], the “% bioactivity” value is 129% and the “greater bioactivity than the parent peptide” value stood at 30%.

The record behind these values is patent publication US20180057547A1, “DIAGNOSTIC AND THERAPEUTIC EPITOPE, AND TRANSGENIC PLANT” (OXFORD UNIVERSITY INNOVATION LIMITED, priority 1999, published 2018).
